Measured values taken from patent publication US20240279221A1, “HETEROCYCLIC COMPOUNDS AND METHODS OF USE” (Schrödinger, Inc., priority 2021, published 2024).

These compounds were tested against SOS1:KRAS (G12C) interaction (Homo sapiens (Human), UniProt Q07889) (assay: SOS1-KRas(G12C) FRET Assay). Conditions: 0.5 nM His10-SOS1 (res. 564-1049), 2.5 nM GST-KRAS (res. 1-169, G12C); read-out: SOS-KRas(G12C) FRET IC50.
Assay type: binding
Experimental: Inhibition of the SOS1:KRAS interaction was measured using purified GST-tagged KRAS (res. 1-169, G12C, purified based on Hillig, et al., Proc Natl Acad Sci USA (2019); 116(7):2551-2560) and recombinant His10-SOS1 (res. 564-1049; purified based on Hillig, et al.). The final assay was performed at 20 uL with 0.5 nM SOS1 protein and 2.5 nM KRAS protein in a buffer of PBS, 0.1% BSA, 5 mM MgCl2, 0.0025% Igepal, 100 mM KF, 5 mM DTT in a white 384 square well OptiPlate (PerkinElmer, Cat. 6007290). A 2× KRAS working solution was prepared in an assay buffer containing 5 nM GST-KRAS G12C and 2 nM anti-GST-Eu(K) (Cisbio, Cat. 61GSTKLA) and pre-incubated for 15 minutes at 25° C. Compounds were serially diluted in 100% DMSO from 2 mM (positive control, compound I-13, PCT Publ. No. WO2018/115380) or 20 mM and then diluted 1:20 in assay buffer before incubation with a solution of SOS1 protein mixed 1:5 with anti-6His-XL665 FRET donor (Cisbio, Cat. 61HISXL) for 15 minutes at 25° C. before addition of 2× KRAS working solution. The final DMSO concentration is 0.5%. Plates were incubated at RT for 2 hrs before the FRET signal was measured using Envision at emission 665 nm and 615 nm. FRET signal was converted to percentage of protein-protein interaction using the following equation:
[formula] • C: signal with compound treatment • P: signal for positive control (DMSO) • N: signal for negative control (no SOS1 added) • IC50 and Hill coefficients were obtained using Graph Pad Prism (Graph Pad software, Inc, USA) with non-linear regression analysis.

Chain of SOS1:KRAS (G12C) interaction (Q07889 564-1049, stated change not applied): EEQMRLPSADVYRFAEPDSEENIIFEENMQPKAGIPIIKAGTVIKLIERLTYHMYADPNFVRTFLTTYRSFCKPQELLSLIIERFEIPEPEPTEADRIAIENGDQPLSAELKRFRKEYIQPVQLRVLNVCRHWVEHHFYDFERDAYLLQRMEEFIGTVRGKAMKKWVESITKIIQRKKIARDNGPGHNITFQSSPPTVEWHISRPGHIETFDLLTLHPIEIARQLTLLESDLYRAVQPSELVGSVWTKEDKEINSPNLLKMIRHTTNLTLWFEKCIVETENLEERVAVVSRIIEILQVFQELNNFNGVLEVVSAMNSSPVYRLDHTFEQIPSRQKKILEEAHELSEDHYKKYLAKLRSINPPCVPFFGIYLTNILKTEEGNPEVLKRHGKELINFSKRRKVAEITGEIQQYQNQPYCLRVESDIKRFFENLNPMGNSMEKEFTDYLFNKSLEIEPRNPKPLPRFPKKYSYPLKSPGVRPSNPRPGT

| SMILES | IC50 [nM] |
| --- | --- |
| C[C@@H](Nc1nn(C)c(=O)c2cc(=O)n([C@]3(C(F)(F)F)CCOC3)cc12)c1cccc2c(F)coc12 (single isomer, unassigned) [Example 167] | 607 |
| Cc1c([C@@H](C)Nc2nn(C)c(=O)c3cc(=O)n([C@@H]4C[C@H]4c4cncc(F)c4)cc23)cccc1C(F)(F)F (single isomer, unassigned) [Example 92] | 567 |
| C[C@@H](Nc1nn(C)c(=O)c2cc(=O)n([C@]3(C(F)(F)F)CCOC3)cc12)c1cccc2c1OCC2(F)F (single isomer, unassigned) [Example 169] | 262 |
| C[C@@H](Nc1nn(C)c(=O)c2cc(=O)n(C3(C)CN(C(=O)C4CC4)C3)cc12)c1cccc(C(F)F)c1F [Example 150, (R)-6-(1-(cyclopropanecarbonyl)-3-methylazetidin-3-yl)-4-((1-(3-(difluoromethyl)-2-fluorophenyl)ethyl)amino)-2-methyl-2,6-dihydropyrido[3,4-d]pyridazine-1,7-dione] | 5.5 |
| C[C@@H](Nc1nn(C)c(=O)c2cc(=O)n([C@H]3C[C@@H]3C(F)(F)F)cc12)c1cccc(C(F)F)c1F (single isomer, unassigned) [Example 137] | 91.2 |
| CC(=O)N1CC[C@@](n2cc3c(N[C@H](C)c4cccc(C(F)F)c4F)nn(C)c(=O)c3cc2=O)(C(F)(F)F)C1 (single isomer, unassigned) [Example 99] | 9.03 |
| COc1c(=O)n([C@]2(C(F)(F)F)CCOC2)cc2c(N[C@H](C)c3cccc(C(F)F)c3F)nn(C)c(=O)c12 (single isomer, unassigned) [Example 158] | 382 |
| Cc1c([C@@H](C)Nc2nn(C)c(=O)c3cc(=O)n(C45COC(C)(C4)C5)cc23)cccc1C(F)(F)F [Example 127, (R)-2-methyl-4-((1-(2-methyl-3-(trifluoromethyl)phenyl)ethyl)amino)-6-(1-methyl-2-oxabicyclo[2.1.1]hexan-4-yl)-2,6-dihydropyrido[3,4-d]pyridazine-1,7-dione] | 90 |
| Cn1nc(N[C@@H](c2cccc(C(F)(F)F)c2)C(F)F)c2cn(C3CC3)c(=O)cc2c1=O [Example 111, (S)-6-cyclopropyl-4-((2,2-difluoro-1-(3-(trifluoromethyl)phenyl)ethyl)amino)-2-methylpyrido[3,4-d]pyridazine-1,7(2H,6H)-dione] | 631 |
| C[C@@H](Nc1nn(C)c(=O)c2cc(=O)n([C@@H]3CCC(F)(F)C3)cc12)c1cccc(C(F)F)c1F (single isomer, unassigned) [Example 122] | 315 |
| C[C@@H](Nc1nn(C)c(=O)c2cc(=O)n([C@]34C[C@H]3CN(C(=O)C3CC3)C4)cc12)c1cccc(C(F)F)c1F (single isomer, unassigned) [Example 142] | 77.2 |
| C[C@@H](Nc1nn(C)c(=O)c2cc(=O)n([C@H]3CC34CC4)cc12)c1cccc(C(F)F)c1F (single isomer, unassigned) [Example 129] | 112 |
| C[C@@H](Nc1nn(C)c(=O)c2cc(=O)n([C@H]3C[C@@H]3C3CC3)cc12)c1cccc(C(F)F)c1F (single isomer, unassigned) [Example 135] | 70.5 |
| C[C@H](Nc1nn(C)c(=O)c2cc(=O)n(C3CC3)cc12)c1cccc(C(F)(F)CO)c1F [Example 103, (S)-6-cyclopropyl-4-((1-(3-(1,1-difluoro-2-hydroxyethyl)-2-fluorophenyl)ethyl)amino)-2-methyl-2,6-dihydropyrido[3,4-d]pyridazine-1,7-dione] | 7800 |
| CC(=O)N1C[C@H]2C[C@@]2(n2cc3c(N[C@H](C)c4cccc(C(F)F)c4F)nn(C)c(=O)c3cc2=O)C1 (single isomer, unassigned) [Example 139] | 120 |
| C[C@@H](Nc1nn(C)c(=O)c2cc(=O)n(C3(C)CC(F)(F)C3)cc12)c1cccc(C(F)F)c1F [Example 134, (R)-6-(3,3-difluoro-1-methylcyclobutyl)-4-((1-(3-(difluoromethyl)-2-fluorophenyl)ethyl)amino)-2-methyl-2,6-dihydropyrido[3,4-d]pyridazine-1,7-dione] | 282 |

| SMILES | IC50 [nM] |
| --- | --- |
| C[C@H](Nc1nn(C)c(=O)c2cc(=O)n(C3(C(F)F)CC3)cc12)c1cccc(C(F)(F)c2ccncc2)c1F [Example 175, (S)-4-((1-(3-(difluoro(pyridin-4-yl)methyl)-2-fluorophenyl)ethyl)amino)-6-(1-(difluoromethyl)cyclopropyl)-2-methyl-2,6-dihydropyrido[3,4-d]pyridazine-1,7-dione] | 4490 |
| C[C@@H](Nc1nn(C)c(=O)c2cc(=O)n([C@H]3CC3(C)C)cc12)c1cccc(C(F)F)c1F (single isomer, unassigned) [Example 133] | 245 |
| C[C@@H](Nc1nn(C)c(=O)c2cc(=O)n(C3CC3)cc12)c1cccc(C(F)(F)C(=O)N(C)C)c1F [Example 106, (R)-2-(3-(1-((6-cyclopropyl-2-methyl-1,7-dioxo-1,2,6,7-tetrahydropyrido[3,4-d]pyridazin-4-yl)amino)ethyl)-2-fluorophenyl)-2,2-difluoro-N,N-dimethylacetamide] | 366 |
| COc1c(=O)n(C2CC2)cc2c(N[C@H](C)c3cccc(C(F)F)c3F)nn(C)c(=O)c12 [Example 85, (R)-6-cyclopropyl-4-((1-(3-(difluoromethyl)-2-fluorophenyl)ethyl)amino)-8-methoxy-2-methyl-2,6-dihydropyrido[3,4-d]pyridazine-1,7-dione] | 192 |
| C[C@@H](Nc1nn(C)c(=O)c2cc(=O)n(C3(C(F)F)CC3)cc12)c1cccc2ccnn12 [Example 116, (R)-6-(1-(difluoromethyl)cyclopropyl)-2-methyl-4-((1-(pyrazolo[1,5-a]pyridin-7-yl)ethyl)amino)-2,6-dihydropyrido[3,4-d]pyridazine-1,7-dione] | > 10000 |
| C[C@@H](Nc1nn(C)c(=O)c2cc(=O)n([C@H]3C[C@@H]3c3cncc(F)c3)cc12)c1cccc(C(F)F)c1F (single isomer, unassigned) [Example 93] | 60.8 |
| Cc1cnc(C(F)(F)c2cccc([C@@H](C)Nc3nn(C)c(=O)c4cc(=O)n(C5(C(F)F)CC5)cc34)c2F)cn1 [Example 176, (R)-4-((1-(3-(difluoro(5-methylpyrazin-2-yl)methyl)-2-fluorophenyl)ethyl)amino)-6-(1-(difluoromethyl)cyclopropyl)-2-methyl-2,6-dihydropyrido[3,4-d]pyridazine-1,7-dione] | 20.1 |
| CCn1nc(N[C@H](C)c2cccc(C(F)(F)F)c2C)c2cn(C3CC3)c(=O)cc2c1=O [Example 8, (R)-6-cyclopropyl-2-ethyl-4-((1-(2-methyl-3-(trifluoromethyl)phenyl)ethyl)amino)-2,6-dihydropyrido[3,4-d]pyridazine-1,7-dione] | 1310 |
| C[C@@H](Nc1nn(C)c(=O)c2cc(=O)n([C@H]3CC34CCC(F)(F)CC4)cc12)c1cccc(C(F)F)c1F (single isomer, unassigned) [Example 130] | 82.6 |
| C[C@H](Nc1nn(C)c(=O)c2cc(=O)n(C3(C(F)F)CC3)cc12)c1cccc2cccn12 [Example 113, (S)-6-(1-(difluoromethyl)cyclopropyl)-4-((1-(indolizin-5-yl)ethyl)amino)-2-methyl-2,6-dihydropyrido[3,4-d]pyridazine-1,7-dione] | > 10000 |
| C[C@H](Nc1nn(C)c(=O)c2cc(=O)n(C3CCOCC3)cc12)c1cccc2sccc12 [Example 63, (S)-4-((1-(benzo[b]thiophen-4-yl)ethyl)amino)-2-methyl-6-(tetrahydro-2H-pyran-4-yl)-2,6-dihydropyrido[3,4-d]pyridazine-1,7-dione] | > 10000 |
| CNC(=O)C(F)(F)c1cccc([C@H](C)Nc2nn(C)c(=O)c3cc(=O)n(C4CC4)cc23)c1F [Example 108, (S)-2-(3-(1-((6-cyclopropyl-2-methyl-1,7-dioxo-1,2,6,7-tetrahydropyrido[3,4-d]pyridazin-4-yl)amino)ethyl)-2-fluorophenyl)-2,2-difluoro-N-methylacetamide] | > 10000 |
| COCC(F)(F)c1cccc([C@H](C)Nc2nn(C)c(=O)c3cc(=O)n(C4(C(F)F)CC4)cc23)c1F [Example 162, 4-[[(1S)-1-[3-(1,1-difluoro-2-methoxy-ethyl)-2-fluoro-phenyl]ethyl]amino]-6-[1-(difluoromethyl)cyclopropyl]-2-methyl-pyrido[3,4-d]pyridazine-1,7-dione] | > 10000 |
| CC(=O)N1CC(C)(n2cc3c(N[C@H](C)c4cccc(C(F)F)c4F)nn(C)c(=O)c3cc2=O)C1 [Example 149, (R)-6-(1-acetyl-3-methylazetidin-3-yl)-4-((1-(3-(difluoromethyl)-2-fluorophenyl)ethyl)amino)-2-methylpyrido[3,4-d]pyridazine-1,7(2H,6H)-dione] | 34.3 |
| CC(=O)N1C[C@@H]2C[C@]2(n2cc3c(N[C@H](C)c4cccc(C(F)F)c4F)nn(C)c(=O)c3cc2=O)C1 (single isomer, unassigned) [Example 140] | 31.3 |
